This is an account of results in patent US20220160703A1, “TUMOR-SELECTIVE COMBINATION THERAPY” (The Board of Regents of The University of Texas System, priority 2019, published 2022).

The subject of one test is tumor specific T cells. As to the kind of experiment: IFNγ ELISPOT / CBA tumor-specific T cell response. The format is in vivo, mice. As for the experimental part: FIGS. 3A-E. Batf3-dependent dendritic cell-mediated T cell cross-priming is required for the antitumor effect of β-lap. […] IFNγ producing cells were determined by ELISPOT assay. […] (FIG. 3D) MC38 cells were subcutaneously transplanted into C57BL/6 WT (n=5/group) and Batf3^-/- mice (n=5/group for Batf3^-/- vehicle; n=6/group for Batf3^-/- β-lap), respectively. Tumor bearing mice were treated with β-lap (0.3 mg, i.t.) every other day for four times. Tumor growth was monitored twice a week. (FIG. 3E) MC38-OVA bearing mice (n=3/group) were treated with β-lap (0.3 mg, i.t.) for one time, and 4 days later, CD11c^+ dendritic cells were purified from the tumor drain lymph node, and cocultured with CD8 T cells isolated from the spleen of OT-1 transgenic mice. The activity of cross-priming of T cells was determined by the level of cell-secreted IFNγ via Cytometric Bead Array (CBA) mouse IFNγ assay. Data are shown as mean±SEM from three independent experiments. **P<0.01, ***P<0.001, ****P<0.0001 determined by unpaired student t-test (FIGS. 3A, 3B and 3E) or two-way ANOVA (FIGS. 3C and 3D). FIGS. 4A-F. Type I IFNs and TLR4/MyD88/signaling is required for the antitumor effect of β-lap and tumor specific CTLs. (FIG. 4A) MC38 tumor bearing C57BL/6 mice (n=5/group) were treated with β-lap (0.3 mg, i.t.) every other day for four times. Anti-IFNAR blocking antibodies (150 μg, i.t.) were administrated every four days for three times during the treatment. (FIG. 4B) The MC38 tumor bearing WT (n=5/group) and […]=4/group) C57BL/6 mice were treated with β-lap (0.3 mg, i.t.) every other day for four times. (FIG. 4C) MC38 tumor bearing WT (n=5/group) and Myd88^-/- (n=3/group) C57BL/6 mice were treated with β-lap (0.3 mg, i.t.) every other day for four times. (FIG. 4D) MC38 tumor bearing WT (n=5/group) and Tlr4^-/- (n=4/group) C57BL/6 mice were treated with β-lap (0.3 mg, i.t.) every other day for four times). (FIG. 4E) MC38 tumor bearing C57BL/6 mice (n=5/group) were treated with β-lap (0.3 mg, i.t.) every other day for four times. Anti-HMGB1 neutralized antibodies (200 μg, i.p) were administrated every three days for three times during the treatment. Tumor growth was monitored twice a week. (FIG. 4F) MC38 tumor bearing WT (n=4/group) or Tlr4^-/- (n=4/group) or MyD88-/- (n=6/group) C57BL/6 mice were treated with β-lap (0.3 mg, i.t.) every other day for four times. Anti-HMGB1 neutralized antibodies (200 μg, i.p) were administrated every three days for three times during the treatment. 12 days after the initial treatment, lymphocytes from the TdLN were isolated and stimulated with MC38 tumor cells irradiated with 60 Gy. IFNγ producing cells were determined by ELISPOTs assay. Data are shown as mean±SEM from two to three independent experiments. *P<0.05, **P<0.01, ***P<0.001, ****P<0.0001 determined by two-way ANOVA. […] (FIG. 6A) Treatment schema for local β-lap treatment based combinative therapy in FIG. 6B and FIG. 6C. (FIGS. 6B-C) MC38 tumor cells were s.c. inoculated into the flank of C57BL/6 mice (n=5/group). […] Tumor growth was monitored twice a week, and numbers of tumor free mice after treatment were shown. […] Tumor growth was monitored twice a week, and numbers of tumor free mice after treatment were shown. […] 12 days after first treatment, tumor infiltrating CD45^+ cells and lymphocytes were analyzed by flow cytometry (FIG. 6G), and OT-1 antigen specific T cells in the spleen were determined by IFNγ ELISPOT assay (FIG. 6H). […]

In a further test the test system is IFNα/β. In words: Type I IFN and cytokine expression in tumor tissue (ELISA, PCR). The class given is in vivo, mice. The following applies: MC38-OVA, β-lap 0.3 mg i.t. two times, six days later. The protocol: FIGS. 19A-C (related to FIGS. 4A-F). TLR4/MyD88 pathway but not TLR9 signaling is required for the antitumor effect of β-lap. (FIGS. 19A-B) MC38-OVA bearing mice were treated with β-lap (0.3 mg, i.t.) for two times. Six days later, tumor tissues were collected for both single cell digestion (FIG. 19A) and RNA extraction (FIG. 19B). (FIG. 19A) The secreted IFNβ from the suspended cell supernatant was measured by ELISA after a 24 hr culture. (FIG. 19B) The mRNA levels of IFNα1, IFNγ, TNFα and CXCL10 were determined by real-time PCR assay. (FIG. 19C) MC38 cells were implanted into Myd88^−/−, Tlr4^−/− and Tlr9^−/− C57BL/6 mice, respectively. Tumor bearing mice were then treated with β-lap (0.3 mg, i.t.) every other day for four times. Tumor growth was monitored twice a week. Data are shown as mean±SEM. *P<0.05, **P<0.01, ***P<0.001 determined by unpaired t-test. FIGS. 25A-E. IB-DNQ induces tumor ICD and dendritic cell-mediated T cell cross-priming. (FIG. 25A) The levels of HMGB1 released into cell culture supernatant after IB-DNQ treatment. MC38, MC38 NOQ1^−/−, B16, and B16 NOQ1^+ cells were treated with IB-DNQ for 4 h followed by replacing medium and growth for 24 h, culture supernatant was collected and HMGB1 levels were determined by ELISA. (FIGS. 25B-C) Relative expression of IFN-α and IFN-β. […]

As for `CC1(C)CCC2=C(O1)c1ccccc1C(=O)C2=O` [β-lap, β-lapachone], the “IFNγ-producing T cells” value in the test on tumor specific T cells (MC38, splenocytes 10 days after first β-lap, irradiated tumor cells) is given as “dramatically increased”. In the test with tumor specific T cells (MC38-OVA, 12 days after initial treatment), the “OT1 antigen specific T cells in tumor tissues and spleen” value is given as “neither β-lap or anti-PD-L1 monotherapy increased”. In addition, the “numbers of OTI specific T cells in spleen” value in the test with tumor specific T cells (MC38-OVA, OTI peptide stimulation) was “much higher”. In addition, the “IFNγ production by OTI T cells primed by TdLN DCs” value with tumor specific T cells (MC38-OVA, β-lap 0.3 mg i.t. once, DCs 4 days later, CBA) is given as “more IFNγ production”. Also, the “tumor-reactive T cells in TdLN” value with tumor specific T cells (WT mice, MC38, 12 days after initial treatment) is “increased the number of tumor-reactive T cells”. In the test on IFNα/β, the “IFNα/β, CXCL10, IFNγ and TNFα in treated tumors” value was “upregulated”.
